Source: patent US8637510B2, “Morpholinothiazoles as alpha 7 positive allosteric modulators” (Janssen Pharmaceutica NV, priority 2009, dated 2014)

What was measured:
human alpha 7-wt nAChR = molecular target: T1, human alpha 7-wt nAChR (Homo sapiens, UniProt P36544); test: Ca2+ flux imaging (FDSS) (Protocol B); assay type: cell-based; conditions: for EC50: potentiation of 100 μM choline, compounds 0.01 μM to 30 μM, read-out: a7-PAM-G_[33]_pEC50 pEC50 (converted); for Emax: read-out: a7-PAM-G_[33]_Eff_Curve_FI % Efficacy
T1 construct: expressed in transfected cells
How it was run: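 Fluo-4AM-loaded cells expressing human α7-wt nAChR, in HBSS with 10 mM HEPES, 5 mM CaCl2, 0.1% BSA, received compound (0.01–30 μM), typically 10 min before 100 μM choline, with calcium flux read in real time. Potentiation is relative to choline alone (100%); EC50 from sigmoidal curves.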

[1] = molecular target: T2, human alpha 7-wt nAChR-expressing GH4C1 cells (Homo sapiens, UniProt P36544); test: Patch-clamp current recording (whole-cell voltage-clamp, PAM type classification); assay type: cell-based; design: key: Type 0 compounds minimally change the effect size of the current elicited by 1 mM choline.; Type 1 compounds enhance the effect size of the current elicited by 1 mM choline but minimally alter the kinetics of the receptor.; Type 2 compounds enhance the effect size of the current elicited by 1 mM choline while reducing the rate and/or the extent of desensitization.; Type 3 compounds enhance the effect size of the current elicited by 1 mM choline. When tested at higher concentrations up to 10 μM they completely inhibit desensitization; Type 4 compounds allow for an initial desensitization of the receptor followed by a re-opening of the receptor during agonist application; conditions: 1 mM choline
T2 construct: expressed in transfected cells
Protocol: The compounds of the present invention are classified as type 1-4, based on qualitative kinetic properties, as determined by whole-cell voltage-clamp recordings. This classification is based on the effect of an alpha 7 PAM compound, as described hereinbefore, on the signal elicited by an agonist application. In particular, said agonist is choline at a concentration of 1 mM. In a preferred experimental setting, said alpha 7 PAM compound and choline are simultaneously applied to the cell, as described hereinafter. Desensitization is defined as the closure of the receptor upon activation during the application of the agonist in whole-cell voltage-clamp electrophysiology measurements seen as the reduction of the […] current after initial activation by the agonist.
The definition of the PAM types 1-4 is described hereinafter: • Type 0 compounds minimally change the effect size of the current elicited by 1 mM choline. • Type 1 compounds enhance the effect size of the current elicited by 1 mM choline but minimally alter the kinetics of the receptor. In particular, the rate and the extent of desensitization and of deactivation of the receptor elicited by the agonist is not affected. The compound-modulated response to 1 mM choline, therefore, is close to a linear scaling of the 1 mM choline response in absence of the alpha 7 PAM compound. • Type 2 compounds enhance the effect size of the current elicited by 1 mM choline while reducing the rate and/or the extent of desensitization. Deactivation of the receptor is generally unaffected. • Type 3 compounds enhance the effect size of the current elicited by 1 mM choline. […] Deactivation of the receptor may be slowed down • Type 4 compounds allow for an initial desensitization of the receptor followed by a re-opening of the receptor during agonist application. At low-potency concentrations of the alpha 7 PAM compound, the agonist-induced activation, which is followed by desensitization, can still be separated from the compound-induced re-opening as an initial inward current-maximum. At higher potency concentrations of the alpha 7 PAM compound, the re-opening occurs faster than the closure due to desensitization so that the initial current-maximum disappears.
A compound was considered to have interesting PAM-like activity when the potentiation of the peak current was at least 200% compared to the control choline response (=100%). Such compounds are classified as belonging to a particular PAM type in the Experimental Part. Compounds not meeting the condition are not classified as belonging to a particular PAM-type.
The compounds also have a potentiating effect on the response to choline when measured by whole-cell patch clamp electrophysiology in GH4C1 cells stably over-expressing the human wild-type alpha 7 receptor.
Patch-clamp recording from mammalian cells has provided a powerful means of assessing the function of membrane-bound proteins thought to be subunits of ligand-gated ion channels. Activation of such proteins by endogenous or exogenous ligands cause opening of a pore associated with the receptor through which ions flow down their electrochemical gradient. In the case of the human alpha 7-wt nAChR-expressing GH4C1 recombinant cell line the preferential permeability to calcium of this receptor means that calcium flows into the cell upon activation by ACh, choline and other nicotinic ligands giving rise to a calcium current. Since this receptor rapidly desensitizes in the presence of agonist it is important that an application system is used which is capable of very rapid switching of solutions (<100 ms) to prevent partial or full desensitisation of receptor responses coincident with the time of agonist application. Consequently, a second convenient technique to assess the enhancement of nicotinic efficacy is a patch-clamp recording from human alpha 7-wt nAChR-expressing GH4C1 cells coupled with a rapid-application system. […]

[2] = efficacy of 100 μM choline defined as 100% in the absence of a PAM

T2 sequence (P36544 23-502): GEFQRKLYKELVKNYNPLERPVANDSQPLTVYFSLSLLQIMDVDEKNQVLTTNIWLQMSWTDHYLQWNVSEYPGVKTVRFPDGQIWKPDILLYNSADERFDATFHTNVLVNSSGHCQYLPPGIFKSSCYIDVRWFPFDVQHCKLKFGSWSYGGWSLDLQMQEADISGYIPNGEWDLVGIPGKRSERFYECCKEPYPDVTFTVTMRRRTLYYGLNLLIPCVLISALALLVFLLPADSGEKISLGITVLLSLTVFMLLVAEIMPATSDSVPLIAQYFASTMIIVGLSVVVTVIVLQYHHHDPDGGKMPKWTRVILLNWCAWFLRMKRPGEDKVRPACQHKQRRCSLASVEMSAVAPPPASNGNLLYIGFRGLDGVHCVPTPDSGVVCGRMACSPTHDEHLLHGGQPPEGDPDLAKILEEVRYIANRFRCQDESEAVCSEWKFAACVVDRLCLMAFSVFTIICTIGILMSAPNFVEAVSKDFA
T1 sequence (P36544 23-502): as above

| a7-PAM-G_[33]_Eff_Curve_FI % Efficacy (human alpha 7-wt nAChR; [2]) | EC50 (human alpha 7-wt nAChR) | Emax (human alpha 7-wt nAChR; [2]) | melting point | SMILES | PAM_Type PAM type [1] |
| --- | --- | --- | --- | --- | --- |
| 735% | 21.4 nM |  |  | Cc1cc(-c2sc(N3CC(C)OC(C(F)(F)F)C3)nc2CNC(=O)CC2CC2)cc(C)n1 (racemic) [Compound 202, N-[[5-(2,6-dimethyl-4-pyridinyl)-2-[2-methyl-6-(trifluoromethyl)-4-morpholinyl]-4-thiazolyl]methyl]-cyclopropaneacetamide] | 2 |
|  | 955 nM | 645% |  | Cc1cc(-c2sc(N3CCOC(C)C3)nc2CNC(=O)c2conc2C)cc(C)n1 (single isomer, unassigned) [Compound 69, N-[[5-(2,6-dimethyl-4-pyridinyl)-2-[(2S*)-2-methyl-4-morpholinyl]-4-thiazolyl]methyl]-3-methyl-4-isoxazolecarboxamide] | 2 |
|  | 724 nM |  |  | Cc1cc(-c2sc(N3CCOC(C)C3)nc2CNC(=O)c2conc2C)cc(C)n1 (single isomer, unassigned) [Compound 73, N-[[5-(2,6-dimethyl-4-pyridinyl)-2-[(2R*)-2-methyl-4-morpholinyl]-4-thiazolyl]methyl]-3-methyl-4-isoxazolecarboxamide] | 2 |
|  | 67.6 nM |  |  | Cc1cc(-c2sc(N3C[C@@H](C)O[C@@H](C)C3)nc2CNC(=O)C2CCC2)cc(C)n1 [Compound 2, N-[[2-[(2R,6S)-2,6-dimethyl-4-morpholinyl]-5-(2,6-dimethyl-4-pyridinyl)-4-thiazolyl]methyl]-cyclobutanecarboxamide] | 2 |
|  | 135 nM | 568% |  | Cc1cc(-c2sc(N3C[C@@H](C)O[C@@H](C)C3)nc2CNC(=O)c2ccccc2Cl)cc(C)n1 [Compound 5, 2-chloro-N-[[2-[(2R,6S)-2,6-dimethyl-4-morpholinyl]-5-(2,6-dimethyl-4-pyridinyl)-4-thiazolyl]methyl]-benzamide] | 2 |
|  | 316 nM | 723% |  | Cc1cc(-c2sc(N3C[C@@H](C)O[C@@H](C)C3)nc2CNC(=O)c2cccc(F)c2)cc(C)n1 [Compound 7, N-[[2-[(2R,6S)-2,6-dimethyl-4-morpholinyl]-5-(2,6-dimethyl-4-pyridinyl)-4-thiazolyl]methyl]-3-fluoro-benzamide] | 2 |
|  | 457 nM | 452% |  | Cc1cc(-c2sc(N3C[C@@H](C)O[C@@H](C)C3)nc2CNC(=O)c2ccc(F)cc2)cc(C)n1 [Compound 8, N-[[2-[(2R,6S)-2,6-dimethyl-4-morpholinyl]-5-(2,6-dimethyl-4-pyridinyl)-4-thiazolyl]methyl]-4-fluoro-benzamide] | 2 |
|  | 240 nM | 566% |  | Cc1cc(-c2sc(N3C[C@@H](C)O[C@@H](C)C3)nc2CNC(=O)c2cccc(Cl)c2)cc(C)n1 [Compound 9, 3-chloro-N-[[2-[(2R,6S)-2,6-dimethyl-4-morpholinyl]-5-(2,6-dimethyl-4-pyridinyl)-4-thiazolyl]methyl]-benzamide] | 2 |
|  | 83.2 nM | 630% |  | Cc1cc(-c2sc(N3C[C@@H](C)O[C@@H](C)C3)nc2CNC(=O)c2ccc(Cl)cc2Cl)cc(C)n1 [Compound 10, 2,4-dichloro-N-[[2-[(2R,6S)-2,6-dimethyl-4-morpholinyl]-5-(2,6-dimethyl-4-pyridinyl)-4-thiazolyl]methyl]-benzamide] | 2 |
|  | 813 nM | 703% |  | Cc1cc(-c2sc(N3C[C@@H](C)O[C@@H](C)C3)nc2CNC(=O)c2ccc(OC(F)(F)F)cc2)cc(C)n1 [Compound 11, N-[[2-[(2R,6S)-2,6-dimethyl-4-morpholinyl]-5-(2,6-dimethyl-4-pyridinyl)-4-thiazolyl]methyl]-4-(trifluoromethoxy)-benzamide] | 2 |
|  | 550 nM | 595% |  | Cc1cc(-c2sc(N3C[C@@H](C)O[C@@H](C)C3)nc2CNC(=O)c2cccc(C#N)c2)cc(C)n1 [Compound 12, 3-cyano-N-[[2-[(2R,6S)-2,6-dimethyl-4-morpholinyl]-5-(2,6-dimethyl-4-pyridinyl)-4-thiazolyl]methyl]-benzamide] | 2 |
|  | 288 nM | 593% |  | Cc1cc(-c2sc(N3C[C@@H](C)O[C@@H](C)C3)nc2CNC(=O)c2ccc(F)cc2F)cc(C)n1 [Compound 13, N-[[2-[(2R,6S)-2,6-dimethyl-4-morpholinyl]-5-(2,6-dimethyl-4-pyridinyl)-4-thiazolyl]methyl]-2,4-difluoro-benzamide] | 2 |
|  | 1910 nM |  | 179 °C | Cc1cc(-c2sc(N3C[C@@H](C)O[C@@H](C)C3)nc2CNC(=O)c2ccon2)cc(C)n1 [Compound 180, N-[[2-[(2R,6S)-2,6-dimethyl-4-morpholinyl]-5-(2,6-dimethyl-4-pyridinyl)-4-thiazolyl]methyl]-3-isoxazolecarboxamide] |  |
|  | 562 nM | 974% | 156 °C | Cc1cc(-c2sc(N3CCOC[C@@H]3C)nc2CNC(=O)c2ccc(F)cc2C)cc(C)n1 [Compound 184, N-[[5-(2,6-dimethyl-4-pyridinyl)-2-[(3S)-3-methyl-4-morpholinyl]-4-thiazolyl]methyl]-4-fluoro-2-methyl-benzamide] |  |
|  | 5250 nM | 994% | 138 °C | Cc1cc(-c2sc(N3CCOC[C@@H]3C)nc2CNC(=O)CC2CC2)cc(C)n1 [Compound 187, N-[[5-(2,6-dimethyl-4-pyridinyl)-2-[(3S)-3-methyl-4-morpholinyl]-4-thiazolyl]methyl]-cyclopropaneacetamide] |  |
|  | 1510 nM |  | 151 °C | Cc1cc(-c2sc(N3CCOC[C@@H]3C)nc2CNC(=O)CC(C)C)cc(C)n1 [Compound 189, N-[[5-(2,6-dimethyl-4-pyridinyl)-2-[(3S)-3-methyl-4-morpholinyl]-4-thiazolyl]methyl]-3-methyl-butanamide] |  |
|  | 219 nM |  | 228 °C | Cc1cc(C(=O)NCc2nc(N3C[C@@H](C)O[C@@H](C)C3)sc2-c2ccnc(C(F)(F)F)c2)no1 [Compound 199, N-[[2-[(2R,6S)-2,6-dimethyl-4-morpholinyl]-5-[2-(trifluoromethyl)-4-pyridinyl]-4-thiazolyl]methyl]-5-methyl-3-isoxazolecarboxamide] |  |
|  | 3980 nM | 632% | 206 °C | Cc1cc(-c2sc(N3CC4CCC(C3)O4)nc2CNC(=O)c2cc(C)on2)cc(C)n1 [Compound 210, N-[[5-(2,6-dimethyl-4-pyridinyl)-2-(8-oxa-3-azabicyclo[3.2.1]oct-3-y1)-4-thiazolyl]methyl]-5-methyl-3-isoxazolecarboxamide] |  |
|  | 4900 nM | 246% | 94 °C | Cc1cc(-c2sc(N3CC4CCC(C3)O4)nc2CNC(=O)c2conc2C)cc(C)n1 [Compound 211, N-[[5-(2,6-dimethyl-4-pyridinyl)-2-(8-oxa-3-azabicyclo[3.2.1]oct-3-yl)-4-thiazolyl]methyl]-3-methyl-4-isoxazolecarboxamide] |  |
